Experimental data: patent publication US12234221B2, “Pyridine carboxamide compounds for inhibiting NAV1.8” (Lieber Institute, Inc., priority 2018, dated 2025)

Molecular target: T1, human Nav1.8 (hNav1.8) ion channel (Homo sapiens, UniProt Q9Y5Y9)
T1 construct: expressed in transfected cells; host or cells: HEK293
Test: Nav1.8 channel inhibition, estimated IC50 (one or more of: fluorescence inhibition assay, PatchXpress, IonFlux HT automated patch clamp)
Assay type: cell-based
Details: HEK293 cells stably expressing hNav1.8; method used per compound not stated; read-out: Activity range (estimated IC50)
Procedure: The ability of pyridine carboxamide derivatives exemplified above to inhibit the Nav1.8 channel was determined using one or more of the methods described below.
HEK Nav1.8 β1/β2 Stably Expressing Cell Line
A HEK293 cell line stably expressing the human Nav1.8 (hNav1.8) ion channel with β1/β2 subunits was constructed. The cell line is suitable for IC50 determination in fluorescence and electrophysiological based assays. It is also suitable to form mechanism of action pharmacology studies in electrophysiological assays. HEK293 Nav 1.8 cells are grown as adherent monolayers in DMEM/high glucose media, 10% fetal bovine serum, Na pyruvate (2 mM), Hepes (10 mM) with selection agents G418 (400 mg/L) and puromycin (0.5 mg/L) at 37 degrees C., 10% CO2.
Nav 1.8 Fluorescence Inhibition Assay
Compounds were made up to or supplied as a 10-mM stock solution using DMSO as the vehicle. Concentration-response curves were generated using a Matrix multichannel pipettor. Compound source plates were made by diluting 10 mM compound stocks to create 500 μM (100×) solutions in DMSO in 96-well v-bottom plates. Compounds were then serially diluted in 100% DMSO to generate a 5 point, 4-fold dilution scheme dose response curve. 2 μL of the 100× dose response curves was then added to preincubation and stimulation assay plates. 100 μL of pre-incubation buffer and 200 μL of stimulation buffer were then added to the plates resulting in a final assay test concentration range of 5 μM to 0.02 μM with a final DMSO concentration of 1%.
On the day of assay, plates were washed to remove cell culture media using 2K EBSS buffer (135 mM NaCl, 2 mM KCl, 5 mM Glucose, 2 mM CaCl2), 1 mM MgCl2, 10 mM HEPES, pH 7.4). The Na-sensitive fluorescent dye, Asante Natrium Green-2 (ANG-2) is incubated for 60 min to allow equilibration and then washed with 2K EBSS. Plates are the transferred to a fluorescence plate reader (FLIPR™, Molecular Devices) for fluorescence measurement using an excitation wavelength of 490 nm and an emission wavelength of 565 nm. Compounds are pre-incubated at for 5 min at final test concentration in the presence of ouabain (30 μM) to inhibit Na+ efflux through Na+/K+ exchanger. Following the pre-incubation phase, hNav1.8 channels are stimulated with 10 μM of the pyrethroid deltamethrin to prevent channel inactivation. The assay was run for 15 min with vehicle and 30 μM tetracaine serving as negative and positive controls, respectively. The peak change in fluorescence relative to negative and positive control wells was calculated and fit with a logistic equation to determine IC50.
PatchXpress Nav 1.8 Inhibition Assay
HEK-Nav1.8 β1/β2 cells were recorded in whole cell patch-clamp using the PatchXpress automated patch clamp platforms (Molecular Devices). Cells suspensions were obtained by trypsinization of adherent monolayers, followed by gentle rocking for minimally 30 min. Compounds were prepared from 10 mM DMSO stocks.
Nav1.8 channel variants were evaluated using Protocol 1 (FIG. 2) in which cells were initially voltage clamped at a holding potential of −100 mV to maintain Nav1.8 in a closed resting state. After current amplitude becomes stable, the mid-point voltage of steady state inactivation was determined for each cell using a series of 5 sec conditioning steps to increasingly depolarized voltages (−100 to 0 mV) The holding potential was then reset to a voltage that produces ˜50% inactivation (Vhalf−set automatically via PatchXpress scripts) so that closed and inactivated channel inhibition can be assessed. Protocol 1 was run at a frequency of 0.1 Hz until current amplitude is steady (automatically determined by PatchXpress scripts). The effect of test reagent on Nav current amplitude was monitored using custom PatchXpress stability scripts which determines the timing of compound addition and washout. Data were processed and analyzed using DataXpress 2.0 (Molecular Devices). […]

T1 sequence (Q9Y5Y9 whole entry): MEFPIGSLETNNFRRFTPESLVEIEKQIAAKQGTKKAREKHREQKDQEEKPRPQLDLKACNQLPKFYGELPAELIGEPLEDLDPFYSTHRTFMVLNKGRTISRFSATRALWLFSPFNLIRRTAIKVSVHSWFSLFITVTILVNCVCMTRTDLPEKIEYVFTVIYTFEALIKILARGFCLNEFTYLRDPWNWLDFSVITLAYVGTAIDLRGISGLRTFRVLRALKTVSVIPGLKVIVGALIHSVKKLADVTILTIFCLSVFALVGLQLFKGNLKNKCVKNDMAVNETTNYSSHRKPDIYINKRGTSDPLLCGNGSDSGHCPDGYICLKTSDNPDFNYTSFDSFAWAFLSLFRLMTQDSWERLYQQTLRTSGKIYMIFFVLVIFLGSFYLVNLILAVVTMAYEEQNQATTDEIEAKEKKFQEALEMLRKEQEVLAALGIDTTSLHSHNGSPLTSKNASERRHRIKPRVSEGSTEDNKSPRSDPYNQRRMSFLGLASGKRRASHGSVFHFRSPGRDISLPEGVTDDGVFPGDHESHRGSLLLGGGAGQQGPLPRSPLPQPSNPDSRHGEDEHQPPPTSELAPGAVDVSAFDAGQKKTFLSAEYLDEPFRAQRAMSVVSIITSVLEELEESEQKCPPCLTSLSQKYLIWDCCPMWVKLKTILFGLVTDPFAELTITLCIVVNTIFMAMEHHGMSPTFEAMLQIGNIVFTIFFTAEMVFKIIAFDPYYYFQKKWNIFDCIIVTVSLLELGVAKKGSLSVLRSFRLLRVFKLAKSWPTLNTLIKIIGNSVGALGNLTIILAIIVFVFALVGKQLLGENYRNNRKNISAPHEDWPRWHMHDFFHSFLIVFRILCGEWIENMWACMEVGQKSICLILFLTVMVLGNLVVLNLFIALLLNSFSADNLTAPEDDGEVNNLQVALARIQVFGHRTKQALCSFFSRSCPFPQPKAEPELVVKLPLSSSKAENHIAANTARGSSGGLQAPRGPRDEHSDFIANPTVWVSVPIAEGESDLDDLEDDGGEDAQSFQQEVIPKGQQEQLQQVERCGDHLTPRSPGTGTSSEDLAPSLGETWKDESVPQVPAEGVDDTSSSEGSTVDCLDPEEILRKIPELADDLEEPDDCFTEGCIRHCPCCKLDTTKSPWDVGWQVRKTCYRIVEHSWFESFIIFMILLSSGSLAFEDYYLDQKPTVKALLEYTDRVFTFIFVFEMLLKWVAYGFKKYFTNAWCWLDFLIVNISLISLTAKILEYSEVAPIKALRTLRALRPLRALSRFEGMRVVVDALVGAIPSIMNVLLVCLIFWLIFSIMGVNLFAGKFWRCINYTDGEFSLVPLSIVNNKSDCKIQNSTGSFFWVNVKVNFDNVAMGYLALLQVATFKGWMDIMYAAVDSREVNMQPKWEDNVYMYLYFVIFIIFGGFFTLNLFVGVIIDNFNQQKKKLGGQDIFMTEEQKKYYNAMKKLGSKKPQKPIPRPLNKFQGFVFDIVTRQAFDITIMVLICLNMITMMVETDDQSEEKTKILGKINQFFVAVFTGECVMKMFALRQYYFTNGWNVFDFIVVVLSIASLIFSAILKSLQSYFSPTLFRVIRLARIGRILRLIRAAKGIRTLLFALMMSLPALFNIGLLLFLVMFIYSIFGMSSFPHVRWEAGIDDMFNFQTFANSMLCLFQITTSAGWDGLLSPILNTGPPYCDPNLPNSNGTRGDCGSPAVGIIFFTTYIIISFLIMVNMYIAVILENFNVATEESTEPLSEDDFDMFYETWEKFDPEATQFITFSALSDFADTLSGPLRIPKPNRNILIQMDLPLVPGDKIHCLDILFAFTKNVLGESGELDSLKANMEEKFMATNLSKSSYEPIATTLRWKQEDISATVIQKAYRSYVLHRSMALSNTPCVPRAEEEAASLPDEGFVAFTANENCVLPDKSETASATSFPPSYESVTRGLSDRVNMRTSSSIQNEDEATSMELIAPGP

`COc1cc(Cl)ccc1Oc1ncc(C(F)(F)F)cc1C(=O)Nc1cccc(S(C)(=O)=O)c1` [Example 26, 2-(4-chloro-2-methoxy-phenoxy)-N-(3-methylsulfonylphenyl)-5-(trifluoromethyl)pyridine-3-carboxamide] gave an IC50 of less than 500 nM.
`CC(C)Oc1ccccc1Oc1ncc(C(F)(F)F)cc1C(=O)Nc1cccc(S(C)(=O)=O)c1` [Example 27, 2-(2-isopropoxyphenoxy)-N-(3-methylsulfonylphenyl)-5-(trifluoromethyl)pyridine-3-carboxamide] gave an IC50 greater than 1000 nM.
For `Cc1cccc(C)c1Oc1ncc(C(F)(F)F)cc1C(=O)Nc1cccc(S(C)(=O)=O)c1` [Example 33, 2-(2,6-dimethylphenoxy)-N-(3-methylsulfonylphenyl)-5-(trifluoromethyl)pyridine-3-carboxamide], the IC50 was greater than 1000 nM.
`CS(=O)(=O)c1cccc(NC(=O)c2cc(C(F)(F)F)cnc2Oc2ccc(F)cc2)c1` [Example 34, 2-(4-fluorophenoxy)-N-(3-methylsulfonyl-phenyl)-5-(trifluoromethyl)pyridine-3-carboxamide] showed an IC50 greater than 1000 nM.
With `COc1cc(F)ccc1Oc1ncc(C(F)(F)F)cc1C(=O)Nc1cccc(S(C)(=O)=O)c1` [Example 35, 2-(4-fluoro-2-methoxy-phenoxy)-N-(3-methylsulfonyl-phenyl)-5-(trifluoromethyl)pyridine-3-carboxamide] the IC50 was less than 500 nM.
With `CS(=O)(=O)c1cccc(NC(=O)c2cc(C(F)(F)F)cnc2Oc2ccc(F)cc2Cl)c1` [Example 36, 2-(2-chloro-4-fluoro-phenoxy)-N-(3-methylsulfonyl-phenyl)-5-(trifluoromethyl)pyridine-3-carboxamide] the IC50 was less than 500 nM.
Compound `Cc1cc(OC(F)(F)F)ccc1Oc1ncc(C(F)(F)F)cc1C(=O)Nc1cccc(S(C)(=O)=O)c1` [Example 37, N-(3-methylsulfonyl-phenyl)-2-[2-methyl-4-(trifluoromethoxy)phenoxy]-5-(trifluoromethyl)pyridine-3-carboxamide] has an IC50 of less than 500 nM.
With `CS(=O)(=O)c1cccc(NC(=O)c2cc(C(F)(F)F)cnc2Oc2ccc(OC(F)(F)F)cc2)c1` [Example 38, N-(3-methylsulfonyl-phenyl)-2-[4-(trifluoromethoxy)phenoxy]-5-(trifluoromethyl)pyridine-3-carboxamide] the IC50 was less than 500 nM.
`CS(=O)(=O)c1cccc(NC(=O)c2cc(C(F)(F)F)cnc2Oc2ccc(OC(F)F)cc2)c1` [Example 39, 2-[4-(difluoromethoxy)phenoxy]-N-(3-methylsulfonyl-phenyl)-5-(trifluoromethyl)pyridine-3-carboxamide] was tested, and the IC50 was less than 500 nM.
Work on `CS(=O)(=O)c1cccc(NC(=O)c2cc(C(F)(F)F)cnc2Oc2ccc(OC(F)(F)F)c(F)c2)c1` [Example 40, 2-[3-fluoro-4-(trifluoromethoxy)phenoxy]-N-(3-methylsulfonyl-phenyl)-5-(trifluoromethyl)pyridine-3-carboxamide] yielded an IC50 of less than 500 nM.
Work on `CS(=O)(=O)c1cccc(NC(=O)c2cc(C(F)(F)F)cnc2Oc2ccccc2)c1` [Example 41, N-(3-methylsulfonyl-phenyl)-2-phenoxy-5-(trifluoromethyl)pyridine-3-carboxamide] yielded an IC50 greater than 1000 nM.
`CS(=O)(=O)c1cccc(NC(=O)c2cc(C(F)(F)F)cnc2Oc2cccc(F)c2)c1` [Example 42, 2-(3-fluorophenoxy)-N-(3-methylsulfonyl-phenyl)-5-(trifluoromethyl)pyridine-3-carboxamide] gave an IC50 of 500 to 1000 nM.
Compound `CS(=O)(=O)c1cccc(NC(=O)c2cc(C(F)(F)F)cnc2Oc2cc(F)ccc2F)c1` [Example 43, 2-(2,5-difluorophenoxy)-N-(3-methylsulfonyl-phenyl)-5-(trifluoromethyl)pyridine-3-carboxamide] has an IC50 of 500 to 1000 nM.
In the case of `Cc1ccc(Oc2ncc(C(F)(F)F)cc2C(=O)Nc2cccc(S(C)(=O)=O)c2)cc1` [Example 44, 2-(4-methylphenoxy)-N-(3-methylsulfonyl-phenyl)-5-(trifluoromethyl)pyridine-3-carboxamide], the IC50 is reported as greater than 1000 nM.
In the case of `CS(=O)(=O)c1cccc(NC(=O)c2cc(C(F)(F)F)cnc2Oc2cc(F)cc(Cl)c2)c1` [Example 45, 2-(3-chloro-5-fluoro-phenoxy)-N-(3-methylsulfonyl-phenyl)-5-(trifluoromethyl)pyridine-3-carboxamide], the IC50 is reported as greater than 1000 nM.
`CC(C)c1ccccc1Oc1ncc(C(F)(F)F)cc1C(=O)Nc1cccc(S(C)(=O)=O)c1` [Example 46, 2-(2-isopropylphenoxy)-N-(3-methylsulfonyl-phenyl)-5-(trifluoromethyl)pyridine-3-carboxamide] showed an IC50 of less than 500 nM.
`CS(=O)(=O)c1cccc(NC(=O)c2cc(C(F)(F)F)cnc2Oc2ccc(F)c(F)c2)c1` [Example 47, 2-(3,4-difluorophenoxy)-N-(3-methylsulfonyl-phenyl)-5-(trifluoromethyl)pyridine-3-carboxamide] was tested, and the IC50 was less than 500 nM.
`CS(=O)(=O)c1cccc(NC(=O)c2cc(C(F)(F)F)cnc2Oc2ccc(F)cc2F)c1` [Example 48, 2-(2,4-difluorophenoxy)-N-(3-methylsulfonyl-phenyl)-5-(trifluoromethyl)pyridine-3-carboxamide] gave an IC50 of less than 500 nM.
In the case of `CS(=O)(=O)c1cccc(NC(=O)c2cc(C(F)(F)F)cnc2Oc2cc(F)cc(F)c2)c1` [Example 49, 2-(3,5-difluorophenoxy)-N-(3-methylsulfonyl-phenyl)-5-(trifluoromethyl)pyridine-3-carboxamide], the IC50 is reported as greater than 1000 nM.
`CS(=O)(=O)c1cccc(NC(=O)c2cc(C(F)(F)F)cnc2Oc2ccc(OCC(F)(F)F)cc2)c1` [Example 50, N-(3-methylsulfonyl-phenyl)-2-[4-(2,2,2-trifluoroethoxy)phenoxy]-5-(trifluoromethyl)pyridine-3-carboxamide] showed an IC50 of less than 500 nM.
`CS(=O)(=O)c1cccc(NC(=O)c2cc(C(F)(F)F)cnc2Oc2ccc(SC(F)(F)F)cc2)c1` [Example 51, N-(3-methylsulfonyl-phenyl)-5-(trifluoromethyl)-2-[4-(trifluoromethyl-sulfanyl)phenoxy]pyridine-3-carboxamide] was tested, and the IC50 was less than 500 nM.
`CN(C)c1ccccc1Oc1ncc(C(F)(F)F)cc1C(=O)Nc1cccc(S(C)(=O)=O)c1` [Example 52, 2-[2-(dimethylamino)phenoxy]-N-(3-methylsulfonyl-phenyl)-5-(trifluoromethyl)pyridine-3-carboxamide] gave an IC50 of 500 to 1000 nM.
`CS(=O)(=O)c1cccc(NC(=O)c2cc(C(F)(F)F)cnc2Oc2ccccc2C(F)(F)F)c1` [Example 53, N-(3-methylsulfonyl-phenyl)-5-(trifluoromethyl)-2-[2-(trifluoromethyl)phenoxy]pyridine-3-carboxamide] was tested, and the IC50 was less than 500 nM.
With `COc1ccc(Oc2ncc(C(F)(F)F)cc2C(=O)Nc2cccc(S(C)(=O)=O)c2)c(OC)c1` [Example 54, 2-(2,4-dimethoxyphenoxy)-N-(3-methylsulfonyl-phenyl)-5-(trifluoromethyl)pyridine-3-carboxamide] the IC50 was less than 500 nM.
`CS(=O)(=O)c1cccc(NC(=O)c2cc(C(F)(F)F)cnc2Oc2cc(F)c(F)c(F)c2)c1` [Example 55, N-(3-methylsulfonyl-phenyl)-5-(trifluoromethyl)-2-(3,4,5-trifluorophenoxy)pyridine-3-carboxamide] was tested, and the IC50 was 500 to 1000 nM.
With `CS(=O)(=O)c1cccc(NC(=O)c2cc(C(F)(F)F)cnc2Oc2cc(Cl)cc(Cl)c2)c1` [Example 56, 2-(3,5-dichlorophenoxy)-N-(3-methylsulfonyl-phenyl)-5-(trifluoromethyl)pyridine-3-carboxamide] the IC50 was greater than 1000 nM.
For `CS(=O)(=O)c1cccc(NC(=O)c2cc(C(F)(F)F)cnc2Oc2ccc(C(F)(F)F)nc2)c1` [Example 57, N-(3-methylsulfonyl-phenyl)-5-(trifluoromethyl)-2-[[6-(trifluoromethyl)-3-pyridyl]oxy]pyridine-3-carboxamide], the IC50 was greater than 1000 nM.
